Reference: patent US11273217B2, “Cancer treatment composition combining anti-CD26 antibody and other anticancer agent” (Y's AC Co., Ltd., priority 2015, dated 2022)

Key:
MESO1 cells = experiment: MTT cell growth assay, MESO1; format: cell-based; settings: 3×10^−8 M or 10^−7 M gemcitabine with cisplatin 0-1 μM and pemetrexed 0-0.3 μM; day 2
Description: (§1) MESO1 or H2452 cells (2×10^3 cells/well) were inoculated to a 96-well plate. One hour later, cisplatin or pemetrexed was added thereto at 10^−9, 10^−8, 10^−7, 10^−6, 10^−5, or 10^−4 M (n=6). At day 2, MTT assay was conducted.
MESO1 cells (2×10^3 cells/well) were inoculated to a 96-well plate. One hour later, the combination of 0.3, 3, or 10 μM cisplatin and 0.1, 3, or 10 μg/ml YS110, or the combination of 0.03, 0.3, or 1 μM pemetrexed and 0.1, 3, or 10 μg/ml YS110 was added thereto. At day 2, MTT assay was conducted. Significant difference was tested by two-tailed t-test (vs Cont).
(§2) MESO1 cells (2×10^3 cells/well) or H2452 cells (2×10^3 cells/well) were inoculated to a 96-well plate. One hour later, 0.3 μM cisplatin-0.1 μM pemetrexed combination, or YS110 (10 μg/ml) plus the 0.3 μM cisplatin-0.1 μM pemetrexed combination was added thereto (n=6). At day 2, MTT assay was conducted. Significant difference was tested by two-tailed t-test (vs Cont).
(§3) Gemcitabine was studied for its effect on the growth of a mesothelioma cell line. A mesothelioma cell line MESO1, JMN, H2452, or H226 (2×10^3 cells/well) was inoculated to a 96-well plate. One hour later, gemcitabine (10^−9, 10^−8, 10^−7, 10^−6, 10^−5, or 10^−4 M) was added thereto (N=6). 2 days later, MTT assay was conducted. Significant difference was tested by two-tailed t-test (vs Cont).
(§4) MESO1 cells (2×10^3 cells/well) were inoculated to a 96-well plate. One hour later, gemcitabine (0, 10^−8, 3×10^−8, or 10^−7 M) and YS110 (0, 1, 3, or 10 μg/ml) were added thereto in combination. At day 2, MTT assay was conducted. Significant difference was tested by two-tailed t-test (vs Cont). Next, interaction in concomitant use of medications was studied (n=6). The interaction between YS110 and gemcitabine used concomitantly was analyzed by two-way ANOVA.
(§5) MESO1, JMN, H2452 or H226 cells (2×10^3 cells/well were inoculated to a 96-well plate. One hour later, 3×10^−8 M or 10^−7 M gemcitabine was added thereto by concomitant use with the combination of cisplatin (0, 0.1, 0.3, or 1 μM) and pemetrexed (0, 0.03, 0.1, or 0.3 μM) (n=6). At day 2, MTT assay was conducted.
(§6) The growth inhibitory effects of cisplatin (10^−9 to 10^−4 M) and pemetrexed (10^−9 to 10^−4 M) were compared using the MESO1 and JMN cell lines.
(§7) The growth inhibitory effect of gemcitabine (10^−9 to 10^−4 M) was compared using MESO1, H2452, JMN, and H226 cell lines.

H2452 cells = experiment: MTT cell growth assay, H2452; format: cell-based; settings: 3×10^−8 M or 10^−7 M gemcitabine with cisplatin 0-1 μM and pemetrexed 0-0.3 μM; day 2
Description: as §1
H2452 cells (2×10^3 cells/well) were inoculated to a 96-well plate. One hour later, the combination of 0.03, 0.3, or 1 μM cisplatin and 0.1, 3, or 10 μg/ml YS110, or the combination of 0.01, 0.1, or 0.3 μM pemetrexed and 0.1, 3, or 10 μg/ml YS110 was added thereto (n=6). At day 2, MTT assay was conducted. Significant difference was tested by two-tailed t-test (vs Cont).
as §2, §3
as §4, with “H2452” for “MESO1”
as §5, §7

JMN cells [1] = experiment: MTT cell growth assay, JMN; format: cell-based
Description: as §3
as §4, with “JMN” for “MESO1”, “3×10^−10, 10^−9,” for “10^−8, 3×10^−8,”, “3×10^−8” for “10^−7”
as §5, §6, §7

H226 cells = experiment: MTT cell growth assay, H226; format: cell-based
Description: as §3
as §4, with “H226” for “MESO1”
as §5, §7

JMN cells [2] = experiment: In vivo JMN cell growth in SCID mice (tumor weight); settings: YS110 10 mg/kg, gemcitabine 10 mg/kg, intraperitoneal, days 2 and 4; day 7
H226 = experiment: In vivo growth of epithelioid mesothelioma cell H226 in SCID mice (tumor weight); settings: YS110 10 mg/kg, gemcitabine 20 mg/kg, intraperitoneal, days 2 and 4; day 7
Description: H226 (3.8×10^5 cells/animal) was subcutaneously transplanted to the backs of female SCID mice. The day of transplantation was defined as day 0. YS110 (10 mg/kg), gemcitabine (20 mg/kg), or YS110 (10 mg/kg)+gemcitabine (20 mg/kg) was intraperitoneally administered to the mice twice (days 2 and 4) (n=6). At day 7, their tumors were excised, and the tumor weights were measured. Significant difference was tested by two-tailed t-test (vs Cont). The interaction between YS110 and gemcitabine used concomitantly was analyzed by two-way ANOVA.

[3] = 3×10^−8 M or 10^−7 M gemcitabine with cisplatin 0-1 μM and pemetrexed 0-0.3 μM, day 2

**Q.** `Nc1ccn([C@@H]2O[C@H](CO)[C@@H](O)C2(F)F)c(=O)n1` [gemcitabine] was tested. Which “effect of gemcitabine on the growth inhibitory action of cisplatin-pemetrexed” value (MESO1 cells) did it give?
**A.** did not potentiate

**Q.** What about the “effect of gemcitabine on the growth inhibitory action of cisplatin-pemetrexed” value (H2452 cells) of the same molecule?
**A.** did not potentiate

**Q.** What about the “effect of gemcitabine on the growth inhibitory action of cisplatin-pemetrexed” value (JMN cells [1]; [3]) of the same molecule?
**A.** did not potentiate

**Q.** What about the “cell growth, gemcitabine dose-response compared among mesothelioma cell lines (in words)” value (JMN cells [1]; 10^−9 to 10^−4 M, 2 days) of the same molecule?
**A.** more strongly suppressed the growth

**Q.** What about the “growth inhibitory effect compared between MESO1 and JMN” value (JMN cells [1]; MESO1 (CD9+) vs JMN (CD9−), 10^−9 to 10^−4 M) of the same molecule?
**A.** significantly stronger growth inhibitory effect on JMN than on MESO1

**Q.** And the “effect of gemcitabine on the growth inhibitory action of cisplatin-pemetrexed” value (H226 cells; [3])?
**A.** did not potentiate

**Q.** What about the “cell growth, gemcitabine dose-response compared among mesothelioma cell lines (in words)” value (H226 cells; 10^−9 to 10^−4 M, 2 days) of the same molecule?
**A.** more strongly suppressed the growth

**Q.** What about the “growth inhibitory effect compared between H2452 and H226” value (H226 cells; H2452 (CD9+) vs H226 (CD9−), 10^−9 to 10^−4 M) of the same molecule?
**A.** significantly stronger growth inhibitory effect on H226 than on H2452

**Q.** What about the “inhibitory effect (tumor weight)” value (JMN cells [2]) of the same molecule?
**A.** 29%

**Q.** And the “inhibitory effect (tumor weight)” value (H226)?
**A.** 29%
